Earlier results, collected in EP1982712A1 (priority 2005, dated 2007).

Settings: for Clearance (route of elimination) / distribution volumes / time to reach the maximum concentration: in vivo; for time to reach the maximum concentration: po

| distribution volumes | time to reach the maximum concentration | bioavailability (after oral administration) | Structure (SMILES) | Clearance (route of elimination) |
| --- | --- | --- | --- | --- |
| 0.7 to 1 L/kg | two |  | OC(Cn1cncn1)(Cn1cncn1)c1ccc(F)cc1F [fluconazole, Fluconazole] | eliminated in a higher proportion in urine |
| about 10.7 l/kg | up to four | about 50% | CCC(C)n1ncn(-c2ccc(N3CCN(c4ccc(OCC5COC(Cn6cncn6)(c6ccc(Cl)cc6Cl)O5)cc4)CC3)cc2)c1=O (stereo not shown) [itraconazole, Itraconazole] | cleared mainly through hepatic metabolism |
